What was measured:
[1] = test system: Streptozotocin induced diabetic mice; experiment: Antidiabetic activity in streptozotocin induced diabetic mice; type: in vivo, Swiss albino mice; settings: plasma, 50 mg/kg oral for 7 days, female mice, vs control group
Method: Antidiabetic Activity in Streptozotocin Induced Diabetic Mice
Female Swiss albino mice, at the age of 10 weeks were used in the study. Diabetes was induced in the animals by injecting streptozotocin by i.p. route at a dose of 200-mg/kg-body weight. 48 hours after streptozotocin administration, the animals were kept fasting for 6 hours. Subsequently blood was collected, plasma separated and the glucose was estimated. Animals showing greater than 200 mg/dl glucose levels were considered as diabetic and these animals were randomly distributed into various groups. The compounds 2 listed in the table 3 were administered at a dose of 50-mg/kg body weight by oral route for 7 days. Later the animals were fasted for 6 hours, the blood was collected and the plasma was separated. Biochemical estimations like glucose, cholesterol and triglycerides were carried out using the plasma. The effect of the compounds mentioned in the table was expressed in terms of percentage reduction in biochemical values as compared to the control group.

DPP IV = biological target: T1, DPP IV (Homo sapiens, UniProt P27487); experiment: DPP IV assay with human plasma as source of DPP IV; type: biochemical; settings: 1 hr incubation, substrate H-gly-pro AMC, vs vehicle control
T1 construct: using human plasma as a source of DPP IV; from tissue; host or cells: human plasma
Method: DPP IV assay is carried by using human plasma as a source of DPP IV. The compounds were incubated at a concentration of 1 and 10 μM in an assay buffer containing the DPP IV enzyme for 1 hr, and then the substrate H-gly-pro AMC was added and further incubated for 20 minutes. Subsequently the reaction was stopped on addition of 25% glacial acetic acid. The plates were read in a spectrofluorimeter to get RFU on setting the excitation wavelength of 360 nm and emission wavelength of 460 nm. The percentage inhibition is calculated as compared to the vehicle control.

T1 sequence (P27487 39-766 limits assumed): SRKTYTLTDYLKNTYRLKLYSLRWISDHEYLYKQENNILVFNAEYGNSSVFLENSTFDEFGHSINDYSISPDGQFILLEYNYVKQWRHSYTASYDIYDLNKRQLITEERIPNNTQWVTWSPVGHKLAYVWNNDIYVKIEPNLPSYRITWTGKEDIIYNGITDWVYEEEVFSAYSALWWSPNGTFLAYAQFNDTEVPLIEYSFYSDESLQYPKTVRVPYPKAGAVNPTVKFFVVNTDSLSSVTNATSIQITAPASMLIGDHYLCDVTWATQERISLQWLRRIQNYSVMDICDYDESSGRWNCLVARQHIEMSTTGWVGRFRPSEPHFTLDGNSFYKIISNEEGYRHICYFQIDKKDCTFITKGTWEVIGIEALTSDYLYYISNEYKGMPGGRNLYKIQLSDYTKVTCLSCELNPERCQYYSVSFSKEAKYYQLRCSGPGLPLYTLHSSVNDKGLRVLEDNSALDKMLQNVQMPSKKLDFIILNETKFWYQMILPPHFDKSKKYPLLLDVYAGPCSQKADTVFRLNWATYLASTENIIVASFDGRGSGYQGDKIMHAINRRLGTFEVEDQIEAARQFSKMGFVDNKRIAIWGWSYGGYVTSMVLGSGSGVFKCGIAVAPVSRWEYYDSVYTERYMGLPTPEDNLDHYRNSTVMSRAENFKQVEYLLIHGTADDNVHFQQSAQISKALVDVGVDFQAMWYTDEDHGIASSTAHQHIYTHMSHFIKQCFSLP

| Compound | % Reduction Glucose [1] [%] | % Reduction Triglyceride [1] [%] | inhibition at 1 µM (DPP IV) [%] | inhibition at 10 µM (DPP IV) [%] |
| --- | --- | --- | --- | --- |
| O=C1COCC(Cc2ccc(Oc3ccc(/C=C4\SC(=O)NC4=O)cc3)cc2)N1 (stereo not shown) [Example 1, 5-[4-(4-{[5-oxomorpholin-3-yl]methyl}phenoxy)benzylidene]-1,3-thiazolidine-2,4-dione] | 41.6 |  |  |  |
| O=C1COCC(Cc2ccc(Oc3ccc(/C=C4\SC(=S)NC4=O)cc3)cc2)N1 (stereo not shown) [Example 2, 5-(4-{4-[(4-oxo-2-thioxo-1,3-thiazolidin-5-ylidene)methyl]phenoxy}benzyl)morpholin-3-one] | 42.6 | 44.4 |  |  |
| O=C1COCC(Cc2ccc(Oc3ccc(/C=C4\SC(=O)NC4=O)cc3Cl)cc2)N1 (stereo not shown) [Example 7, 5-(3-chloro-4-{4-[(5-oxomorpholin-3-yl)methyl]phenoxy}benzylidene)-1,3-thiazolidine-2,4-dione] | 44.5 | 60.9 |  |  |
| O=C1COCC(Cc2ccc(Oc3ccc(/C=C4/C(=O)Nc5ccccc54)cc3Cl)cc2)N1 (stereo not shown) [Example 9] |  |  | 6.3 | 7.5 |
| O=C1COCC(Cc2ccc(Oc3ccc(/C=C4/C(=O)Nc5ccccc54)cc3F)cc2)N1 (stereo not shown) [Example 15] |  |  | 12.1 | 9.1 |
| O=C1COCC(Cc2ccc(Oc3ccc(/C=C4\SC(=S)NC4=O)cc3C(F)(F)F)cc2)N1 (stereo not shown) [Example 18, 5-(4-{4-[(4-oxo-2-thioxo-1,3-thiazolidin-5-ylidene)methyl]-2-(trifluoromethyl)phenoxy}benzyl)morpholin-3-one] |  |  | 7.3 | 11.8 |
| CN1C(=O)COCC1Cc1ccc(Oc2ccc(/C=C3\SC(=O)NC3=O)cc2)cc1 (stereo not shown) [Example 19, 5-(4-{4-[(4-methyl-5-oxomorpholin-3-yl)methyl]phenoxy}benzylidene)-1,3-thiazolidine-2,4-dione] |  |  | 8.9 | 15.2 |
